Measured values from patent US5250673A, “2'-deoxy-5-substituted uridine derivatives” (priority 1983, dated 1993).
Where two headings read alike, the source gives them in different places.

Columns and labels:
Sarcoma 180 [1] = assay: antitumor activity: 50% inhibition of tumor enhancement, Sarcoma 180 transplanted in mice; format: in vivo, mouse; conditions: oral, once a day, 7 days, male ICR/JCL mice, tumor weight day 10
Description: (a) Method for determining of antitumor activity value
5×10^6 Cells of mouse-transplantable tumor Sarcoma 180 were transplanted to each male ICR/JCL-strain mouse (having a weight of 27 to 30 g) subcutaneously at the back. Each test compound dissolved or suspended in 0.1% Tween 80^(*) - 0.5% CMC solution was orally administered to various test groups each consisting of 7 mice once a day for 7 consecutive days from the next day of tumor transplanting, in an amount of 1.0 ml of solution or suspension per 100 g weight per day. As to a control group, the same Tween 80-CMC solution containing no test compound was orally administered once a day for 7 consecutive days in an amount of 1.0 ml per 100 g weight per day. (*) (A trademark for a series of surface which is a polyoxyethylene derivative of fatty acid partial ester of sorbitol anhydride, manufactured by I.C.I. U.S., Inc.)
On the tenth day from the tumor transplanting, an average tumor weight for each administration level of each test compound was determined. This weight was compared with an average tumor weight in control group, and the ratio of tumor enhancement inhibition at each administration level of each test compound compared with control group was calculated. From these calculations, the administration level of each test compound at which the ratio of tumor enhancement inhibition become 50% was obtained and the level (amount) was taken as the antitumor activity value of each compound.

[2] = toxicity value: 50% inhibition of weight increase of test animal (Sarcoma 180 tumor-transplanted mice); format: in vivo, mouse; conditions: oral, once a day, 7 days, male ICR/JCL mice; for TD50 at 240 h: mouse, sarcoma 180 bearing mice, read-out: Toxicity value (B) Administration amount of test compound at which weight increase of test animal is inhibited by 50% compared with that of control group
Description: (b) Method for determining toxicity value
Hitherto, toxicity values of anti-malignant tumor agents have been calculated on the bases of LD50 of test animals, in most cases. […] Therefore, in the present test, accumulated toxicity, which well represents the toxicity of anti-malignant tumor agents, was focused on and, as an indication for sensitive detection of the accumulated toxicity, inhibition of weight increase of test animal was measured. That is, when antitumor activity value was determined in the above item (a), the weight of each mouse of each test groups for each test compounds was measured daily from the day of tumor transplanting, immediately before administration.
On the day of tumor weight measurement, the average net weight increase of each mouse of each test groups for each test compounds from the day of tumor transplanting was measured. These increases were compared with the average net weight increase of control group and the ratio of net weight increase of each test groups of each test compounds to that of control group was calculated. From these calculations, there was obtained an addition amount of each test compound at which weight increase is inhibited by 50% compared with that of control group, and that amount was taken as a toxicity value of each compound.

Sarcoma 180 [3] = assay: calculation of therapeutic index (B)/(A), Sarcoma 180 mice; format: in vivo, mouse; parameters: key: C = toxicity value (B) / antitumor activity value (A); conditions: Table 1-c; oral, once a day, 7 days
Description: (c) Calculation of therapeutic index
By the use of the antitumor activity value (hereinafter referred to as A) and the toxicity value (hereinafter referred to as B) of each compound, which were obtained in the above items (a) and (b), respectively, therapeutic index (hereinafter referred to as C) was calculated in accordance with the following equation.
Therapeutic index (C)=^(B)(A)

[4] = reported in literature; cited from earlier work
[5] = relative to 5-FU; cited from earlier work
[6] = compared with 5-FU; cited from earlier work
nucleosidephosphorylase = conditions: administered in vivo; cited from earlier work
[7] = in vivo; cited from earlier work
[8] = compared with 5-FU; cited from earlier work; remark: listed apart in the source
[9] = administration limited to intraarterial injection; cited from earlier work

Row | SMILES | Antitumor activity value (A) Administration amount of test compound at which tumor enhancement is inhibited by 50% compared with that of control group (Sarcoma 180 [1]; Table 1-c) | TD50 at 240 h ([2]; Table 1-c) | Therapeutic index (C) = (B)/(A) (Sarcoma 180 [3]) | Antitumor activity value (A) Administration amount of test compound at which tumor enhancement is inhibited by 50% compared with that of control group (Sarcoma 180 [1]; Table 1-a) | Antitumor activity value (A) Administration amount of test compound at which tumor enhancement is inhibited by 50% compared with that of control group (Sarcoma 180 [1]; Table 1-b) | Toxicity value (B) Administration amount of test compound at which weight increase of test animal is inhibited by 50% compared with that of control group ([2]; Table 1-a, 14400 min) | TD50 at 240 h ([2]; Table 1-b) | antitumor activity [4] | carcinostatic activity in vitro [5] | conversion in vivo into active form [6] | decomposition into 5-FU by nucleosidephosphorylase (nucleosidephosphorylase) | excretion [7] | prolonged action in blood [7] | carcinostatic effect [8] | toxicity as a medicine [9]
1 | O=c1[nH]c(=O)n([C@H]2C[C@H](O)[C@@H](COCc3ccccc3)O2)cc1F [Compound 41] | 13 mg/kg/day | 30 mg/kg | 2.31 |  |  |  |  |  |  |  |  |  |  |  | 
2 | O=c1[nH]c(=O)n([C@H]2C[C@H](O)[C@@H](CO)O2)cc1C(F)(F)F [F3 TdR, 2'-Deoxy-5-trifluoromethyl uridine, reference compound] |  |  |  | 68 mg/kg/day | 58 mg/kg/day | 49 mg/kg/day | 40 mg/kg | has an antitumor activity |  |  |  |  |  |  | 
3 | O=c1[nH]c(=O)n([C@H]2C[C@H](O)[C@@H](CO)O2)cc1F [FudR, 2'-deoxy-5-fluorouridine] | 93 mg/kg/day | 71 mg/kg | 0.76 |  |  |  |  |  | about 100 times that of 5-fluorouracil | more easily than 5-FU | easily decomposed into 5-FU by nucleosidephosphorylase | excreted very quickly | poor prolonged action in blood | inferior to 5-FU in carcinostatic effect | very toxic
